Measured values: ChEMBL document CHEMBL4765266, “Design, synthesis and structure-activity relationships of 4-phenyl-1H-1,2,3-triazole phenylalanine derivatives as novel HIV-1 capsid inhibitors with promising antiviral activities” (Eur J Med Chem, 2020)
Active and inactive are the calls of the source. No cut-off for these calls is given here.

Columns and labels:
TZM = test: Cytotoxicity against in human TZM-bl cells assessed as reduction in cell viability measured after 2 days by CytoTox-Glo cytotoxicity assay; conditions: 48 h
in vitro [1] = conditions: human, TZM-bl cells
Description: Selectivity index, ratio of CC50 for human TZM-bl cells to EC50 for HIV1 NL4-3 infected in human TZM-bl cells

[2] = test system: Human immunodeficiency virus 1; test: Antiviral activity against HIV1 NL4-3 infected in human TZM-bl cells assessed as reduction in virus induced cytopathic effect measured after 2 days by luciferase gene expression assay; assay type: functional, organism-based; conditions: Human immunodeficiency virus 1, NL4-3, TZM-bl, 48 h
[3] = human, microsomes, 1 h
[4] = human, microsomes, 1 h; remark: listed apart in the source
[5] = Binding affinity to HIV1 NL4-3 capsid protein monomer assessed as dissociation constant by SPR analysis; set-up: species or system Human immunodeficiency virus 1
in vitro [6] = conditions: human, liver microsomes
Description: Metabolic stability in human liver microsomes assessed as parent compound remaining in presence of NADPH after 1 hr by LC/MS/MS method

[7] = Binding affinity to HIV1 NL4-3 capsid protein hexamer assessed as dissociation constant by SPR analysis; set-up: species or system Human immunodeficiency virus 1
[8] = test system: Human immunodeficiency virus 1; test: Antiviral activity against HIV1 NL4-3 Env-deficient pseudotype virus infected in human U87/CD4/CCR5 cells assessed by reduction in viral production in late stage measured after 48 hrs by luciferase activity based single-round infection assay; assay type: functional, organism-based; conditions: Human immunodeficiency virus 1, NL4-3, U87/CD4/CCR5, 48 h
[9] = test system: Human immunodeficiency virus 1; test: Antiviral activity against HIV1 NL4-3 Env-pseudotype virus in human U87/CD4/CCR5 cells assessed as reduction in p24 production at 10 uM by ELISA reader relative to control; assay type: functional
[10] = Metabolic stability in human plasma assessed as parent compound remaining after 60 mins by LC/MS/MS method; assay type: ADME, cell-free; conditions: 1 h
[11] = Metabolic stability in human plasma assessed as parent compound remaining after 10 mins by LC/MS/MS method; assay type: ADME, cell-free
[12] = test system: Human immunodeficiency virus 1; test: Antiviral activity against HIV1 NL4-3 Env-deficient pseudotype virus infected in human U87/CD4/CCR5 cells assessed by reduction in viral production in early stage measured after 48 hrs by luciferase activity based single-round infection assay; assay type: functional, organism-based; conditions: Human immunodeficiency virus 1, NL4-3, U87/CD4/CCR5, 48 h
[13] = Metabolic stability in human plasma assessed as parent compound remaining after 120 mins by LC/MS/MS method; assay type: ADME, cell-free; conditions: 2 h
[14] = Metabolic stability in human plasma assessed as parent compound remaining after 30 mins by LC/MS/MS method; assay type: ADME, cell-free; conditions: 0.5 h
U87/CD4/CCR5 [15] = test: Effect on HIV1 NL4-3 capsid protein assembly at 50 uM measured every 1 min for 19 mins by Spectrophotometer method; conditions: Human immunodeficiency virus 1
[16] = human, microsomes, 1 h; remark: listed apart in the source
Description: Metabolic stability in human liver microsomes assessed as parent compound remaining in absence of NADPH after 1 hr by LC/MS/MS method

U87/CD4/CCR5 [17] = test: Induction of HIV1 NL4-3 capsid protein assembly at 50 uM measured every 1 min for 19 mins by Spectrophotometer method; conditions: Human immunodeficiency virus 1

Structure (SMILES) | CC50 (TZM) [µM] | selectivity ratio (in vitro [1]) | EC50 [2] [µM] | further results
COc1ccc(N(C)C(=O)[C@H](Cc2ccccc2)NC(=O)Cn2cc(-c3ccc(NC(=O)c4ccc(C#N)cc4)cc3)nn2)cc1 | > 16.3 | > 1.32 | 12.4 | 
COC(=O)c1ccc(C(=O)Nc2ccc(-c3cn(CC(=O)N[C@@H](Cc4ccccc4)C(=O)N(C)c4ccc(OC)cc4)nn3)cc2)cc1 | > 15.5 |  | > 15.5 | 
COc1ccc(N(C)C(=O)[C@H](Cc2ccccc2)NC(=O)Cn2cc(-c3ccc(NC(=O)c4ccccc4OC)cc3)nn2)cc1 | > 16.2 |  | > 16.2 | 
COc1ccc(N(C)C(=O)[C@H](Cc2ccccc2)NC(=O)Cn2cc(-c3cccc(NC(=O)c4ccccc4)c3)nn2)cc1 | > 17 | > 1.33 | 12.7 | 
COc1ccc(N(C)C(=O)[C@H](Cc2ccccc2)NC(=O)Cn2cc(-c3ccccc3NC(=O)c3cccc(OC)c3)nn2)cc1 | > 16.2 | > 1.27 | 12.8 | 
COc1ccc(N(C)C(=O)[C@H](Cc2ccccc2)NC(=O)Cn2cc(-c3ccccc3NC(C)=O)nn2)cc1 | > 19 | > 4.76 | 3.99 | 
COc1ccc(N(C)C(=O)[C@H](Cc2ccccc2)NC(=O)Cn2cc(-c3cccc(NC(=O)c4ccc(C)cc4)c3)nn2)cc1 | > 16.6 |  | > 16.6 | 
COc1ccc(N(C)C(=O)[C@H](Cc2ccccc2)NC(=O)Cn2cc(-c3ccccc3NC(=O)c3ccccc3F)nn2)cc1 | > 16.5 | > 5.27 | 3.13 | t1/2 [3]: 0.9 min; CLH [4]: 1559.4 µL/min/mg; Kd [5]: 7.95 µM; remaining at 1 h (in vitro [6]): 0.3%; Kd [7]: 6.04 µM; IC50 [8]: 320 nM; inhibition at 10 µM ([9]; Human immunodeficiency virus 1, NL4-3, U87/CD4/CCR5): 15%; Stabilty [10]: 86.9%; Stabilty [11]: 91.3%; IC50 [12]: 8.18 µM; Stabilty [13]: 107.4%; Stabilty [14]: 94.6%; Activity (U87/CD4/CCR5 [15]): inactive; Stabilty [16]: 122.1%
COc1ccc(N(C)C(=O)[C@H](Cc2ccccc2)NC(=O)Cn2cc(-c3ccc(NC(=O)c4cccc(F)c4)cc3)nn2)cc1 | > 16.5 | > 1.3 | 12.7 | 
COc1ccc(N(C)C(=O)[C@H](Cc2ccccc2)NC(=O)Cn2cc(-c3ccccc3NC(=O)c3ccc(C)cc3)nn2)cc1 | > 16.6 |  | > 16.6 | 
COc1ccc(C(=O)Nc2ccccc2-c2cn(CC(=O)N[C@@H](Cc3ccccc3)C(=O)N(C)c3ccc(OC)cc3)nn2)cc1 | > 16.2 |  | > 16.2 | 
COc1ccc(N(C)C(=O)[C@H](Cc2ccccc2)NC(=O)Cn2cc(-c3cccc(NC(=O)c4ccc(F)cc4)c3)nn2)cc1 | > 16.5 |  | > 16.5 | 
COc1ccc(N(C)C(=O)[C@H](Cc2ccccc2)NC(=O)Cn2cc(-c3cccc(NC(=O)c4cccc(OC)c4)c3)nn2)cc1 | > 16.2 |  | > 16.2 | 
COc1ccc(C(=O)Nc2cccc(-c3cn(CC(=O)N[C@@H](Cc4ccccc4)C(=O)N(C)c4ccc(OC)cc4)nn3)c2)cc1 | > 16.2 |  | > 16.2 | 
COc1ccc(N(C)C(=O)[C@H](Cc2ccccc2)NC(=O)Cn2cc(-c3ccc(NC(=O)c4ccc(-c5ccccc5)cc4)cc3)nn2)cc1 | > 15 | > 1.23 | 12.2 | 
COc1ccc(N(C)C(=O)[C@H](Cc2ccccc2)NC(=O)Cn2cc(-c3ccccc3NC(=O)c3cccc(F)c3)nn2)cc1 | > 16.5 | > 4.99 | 3.3 | Kd [5]: 6.8 µM; Kd [7]: 4.99 µM
COc1ccc(N(C)C(=O)[C@H](Cc2ccccc2)NC(=O)Cn2cc(-c3ccc(NC(=O)c4ccc(C)cc4)cc3)nn2)cc1 | > 16.6 |  | > 16.6 | 
COc1ccc(N(C)C(=O)[C@H](Cc2ccccc2)NC(=O)Cn2cc(-c3ccccc3NC(=O)c3ccc(C#N)cc3)nn2)cc1 | > 16.3 |  | > 16.3 | 
COc1ccc(N(C)C(=O)[C@H](Cc2ccccc2)NC(=O)Cn2cc(-c3cccc(NC(=O)c4ccc(-c5ccccc5)cc4)c3)nn2)cc1 | > 15 |  | > 15 | 
COc1ccc(N(C)C(=O)[C@H](Cc2ccccc2)NC(=O)Cn2cc(-c3ccccc3NC(=O)c3ccccc3)nn2)cc1 | > 17 | > 4.54 | 3.74 | 
COC(=O)c1ccc(C(=O)Nc2ccccc2-c2cn(CC(=O)N[C@@H](Cc3ccccc3)C(=O)N(C)c3ccc(OC)cc3)nn2)cc1 | > 15.5 |  | > 15.5 | 

Structure (SMILES) | CC50 (TZM) [µM] | selectivity ratio (in vitro [1]) | EC50 [2] [µM] | further results
Cc1[nH]c2ccccc2c1CC(=O)N[C@@H](Cc1ccccc1)C(=O)N(C)c1ccccc1 | > 23.5 |  | 0.28 | CLH [4]: 2403 µL/min/mg; Kd [5]: 2.4 µM; IC50 [8]: 230 nM; inhibition [9]: Active; Stabilty [10]: 86.5%; Stabilty [11]: 87.3%; Activity (U87/CD4/CCR5 [17]): Active; IC50 [12]: 0.056 µM; Stabilty [13]: 85.6%; Stabilty [14]: 83.4%
COc1ccc(N(C)C(=O)[C@H](Cc2ccccc2)NC(=O)Cn2cc(-c3cccc(NC(=O)c4ccccc4OC)c3)nn2)cc1 | > 16.2 |  | > 16.2 | 
C[C@]12CC[C@H]3[C@@H](CCC4=CC(=O)CC[C@@]43C)[C@@H]1CC[C@@H]2O [TESTOSTERONE] |  |  |  | t1/2 [3]: 7.4 min; CLH [4]: 188.3 µL/min/mg
COc1ccc(N(C)C(=O)[C@H](Cc2ccccc2)NC(=O)Cn2cc(-c3cccc(N)c3)nn2)cc1 | > 20.6 | > 6.25 | 3.3 | Kd [5]: 15.8 µM; Kd [7]: 4 µM
COc1ccc(N(C)C(=O)[C@H](Cc2ccccc2)NC(=O)Cn2cc(-c3ccc(NC(=O)c4ccccc4F)cc3)nn2)cc1 | > 16.5 | > 1.39 | 11.9 | 
CC(C)[N+](C)(CCOC(=O)C1c2ccccc2Oc2ccccc21)C(C)C.[Br-] [PROPANTHELINE BROMIDE] |  |  |  | Stabilty [10]: 0.6%; Stabilty [11]: 47.7%; Stabilty [14]: 9.1%
COc1ccc(N(C)C(=O)[C@H](Cc2ccccc2)NC(=O)Cn2cc(-c3cccc(NC(=O)c4cccc(F)c4)c3)nn2)cc1 | > 16.5 | > 1.72 | 9.56 | 
COc1ccc(N(C)C(=O)[C@H](Cc2ccccc2)NC(=O)Cn2cc(-c3ccccc3NC(=O)c3ccccc3OC)nn2)cc1 | > 16.2 | > 1.92 | 8.41 | 
COc1ccc(N(C)C(=O)[C@H](Cc2ccccc2)NC(=O)Cn2cc(-c3ccc(NC(=O)c4cccc(OC)c4)cc3)nn2)cc1 | > 16.2 |  | > 16.2 | 
COc1ccc(N(C)C(=O)[C@H](Cc2ccccc2)NC(=O)Cn2cc(-c3cccc(NC(=O)c4ccccc4F)c3)nn2)cc1 | > 16.5 | > 1.22 | 13.5 | 
COC(=O)c1ccc(C(=O)Nc2cccc(-c3cn(CC(=O)N[C@@H](Cc4ccccc4)C(=O)N(C)c4ccc(OC)cc4)nn3)c2)cc1 | > 15.5 |  | > 15.5 | 
COc1ccc(N(C)C(=O)[C@H](Cc2ccccc2)NC(=O)Cn2cc(-c3ccccc3N)nn2)cc1 | > 20.6 | > 5.27 | 3.92 | 
COc1ccc(N(C)C(=O)[C@H](Cc2ccccc2)NC(=O)Cn2cc(-c3ccc(NC(C)=O)cc3)nn2)cc1 | > 19 |  | > 19 | 
COc1ccc(N(C)C(=O)[C@H](Cc2ccccc2)NC(=O)Cn2cc(-c3ccc(NC(=O)c4ccc(F)cc4)cc3)nn2)cc1 | > 16.5 | > 1.27 | 13 | 
COc1ccc(C(=O)Nc2ccc(-c3cn(CC(=O)N[C@@H](Cc4ccccc4)C(=O)N(C)c4ccc(OC)cc4)nn3)cc2)cc1 | > 16.2 |  | > 16.2 | 
COc1ccc(N(C)C(=O)[C@H](Cc2ccccc2)NC(=O)Cn2cc(-c3ccccc3NC(=O)c3ccc(-c4ccccc4)cc3)nn2)cc1 | > 15 |  | > 15 | 
COc1ccc(N(C)C(=O)[C@H](Cc2ccccc2)NC(=O)Cn2cc(-c3ccccc3NC(=O)c3ccc(F)cc3)nn2)cc1 | > 16.5 | > 4.76 | 3.46 | 
COc1ccc(N(C)C(=O)[C@H](Cc2ccccc2)NC(=O)Cn2cc(-c3cccc(NC(=O)c4ccc(C#N)cc4)c3)nn2)cc1 | > 16.3 | > 1.27 | 12.9 | 
COc1ccc(N(C)C(=O)[C@H](Cc2ccccc2)NC(=O)Cn2cc(-c3ccc(NC(=O)c4ccccc4)cc3)nn2)cc1 | > 17 | > 1.32 | 12.9 | 
COc1ccc(N(C)C(=O)[C@H](Cc2ccccc2)NC(=O)Cn2cc(-c3ccc(N)cc3)nn2)cc1 | > 20.6 | > 1.51 | 13.6 | 
COc1ccc(N(C)C(=O)[C@H](Cc2ccccc2)NC(=O)Cn2cc(-c3cccc(NC(C)=O)c3)nn2)cc1 | > 19 | > 1.28 | 14.8 | 
